The source of these data is article PMC4350077, “Mechanism of Action of Thalassospiramides, A New Class of Calpain Inhibitors” (Scientific Reports, 2015).

For orientation: IC50 means the midpoint of a concentration-inhibition curve.

Where two headings read alike, the source gives them in different places. Where only a bound is given, the exact number is not on record here.

For the test, the target named is T1, human calpain 1 protease (HCAN1) (Homo sapiens, UniProt P07384).
T1 construct: gene CAPN1; with Calpain small subunit 1
T1 sequence (P07384 2-714): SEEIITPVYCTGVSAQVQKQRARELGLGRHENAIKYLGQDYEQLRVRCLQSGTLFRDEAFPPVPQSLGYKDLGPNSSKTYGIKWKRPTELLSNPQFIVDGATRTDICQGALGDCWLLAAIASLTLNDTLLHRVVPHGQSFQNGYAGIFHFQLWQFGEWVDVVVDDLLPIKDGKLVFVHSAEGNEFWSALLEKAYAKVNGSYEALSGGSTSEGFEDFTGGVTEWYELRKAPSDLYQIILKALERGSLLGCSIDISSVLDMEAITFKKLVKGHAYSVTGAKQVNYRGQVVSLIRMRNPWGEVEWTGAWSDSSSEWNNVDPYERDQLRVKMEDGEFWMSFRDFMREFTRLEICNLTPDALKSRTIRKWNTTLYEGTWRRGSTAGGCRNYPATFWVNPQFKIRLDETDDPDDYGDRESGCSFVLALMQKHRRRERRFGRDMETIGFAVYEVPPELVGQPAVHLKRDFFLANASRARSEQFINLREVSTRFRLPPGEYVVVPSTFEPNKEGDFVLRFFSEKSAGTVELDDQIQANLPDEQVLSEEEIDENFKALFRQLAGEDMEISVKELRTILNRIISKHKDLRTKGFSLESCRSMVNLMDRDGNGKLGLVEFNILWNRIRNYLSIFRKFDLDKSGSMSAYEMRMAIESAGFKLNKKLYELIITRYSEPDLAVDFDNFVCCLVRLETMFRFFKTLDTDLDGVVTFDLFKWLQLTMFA
T1 sequence (P04632 1-268 partner): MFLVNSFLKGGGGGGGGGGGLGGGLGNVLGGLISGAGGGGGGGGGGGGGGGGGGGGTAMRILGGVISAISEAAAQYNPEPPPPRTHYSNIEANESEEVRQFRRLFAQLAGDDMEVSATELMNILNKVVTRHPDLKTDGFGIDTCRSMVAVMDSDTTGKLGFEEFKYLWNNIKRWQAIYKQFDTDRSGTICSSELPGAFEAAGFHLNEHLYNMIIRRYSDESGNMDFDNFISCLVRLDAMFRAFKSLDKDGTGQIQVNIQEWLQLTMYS
In words: fluorescence calpain activity assay kit (Ac-LLY-AFC). In kind it is biochemical.

With `CCCCCCCCCC(=O)N[C@@H](CO)C(=O)N[C@H](C(=O)N[C@@H](CO)[C@@H](O)CC(=O)N[C@H](C(=O)N[C@@H]1CCC(=O)N[C@@H](C(C)C)C(=O)N(C)[C@@H](Cc2ccc(O)cc2)C(=O)OC1)C(C)C)C(C)C` [compound 3, 3], the IC50 is above 5000 nM.

Take Thalassospiramide C [compound 4]: half-maximal inhibition (Ac-LLY-AFC substrate, 37 °C, 1 h, covalent (Michael addition to Cys115)) (IC50) required 3.4 ± 1.2 nM.
